# Test results: US20140308244A1, “Combination Therapy for Treatment of Inflammatory Demyelinating Disease” (The Board of Trustees of the Leland Stanford Junior …, priority 2011, published 2014)
# Experiments:
# [1] = system: experimental autoimmune encephalomyelitis (EAE); settings: mouse model for multiple sclerosis; Platten et al, 2009, PNAS 106:14948; cited from earlier work
# [2] = system: EAE; experiment: EAE relapse model: Rebif and/or Lisinopril treatment initiated at peak of disease; assay type: in vivo; settings: Rebif daily 0.25 μg/mouse intraperitoneally, Lisinopril 1 mg/kg/day orally
# Method: FIG. 2 is a graph of disease scores for EAE, when combination treatment of Rebif and Lisinopril is initiated at the peak of disease.
# In this instance, Rebif was given daily (0.25 μg/mouse, intraperitoneally), and Lisinopril was given daily (1 mg/kg/day, orally).
compound,measurement,setting,value
NCCCC[C@H](N[C@@H](CCc1ccccc1)C(=O)O)C(=O)N1CCC[C@H]1C(=O)O [Lisinopril],efficacy in treating EAE,[1],effective
same,Average Relapse Rate,[2],0.7
same,Average Relapse Rate,[2]; listed as PBS/Lisinopril,0.70
